Several values for one entry are separate records, joined by “and”; a condition that tells them apart may be missing. Equal entries are not always repeated. Entries after “also recorded” stand apart in the source; their conditions may differ. Structures can show the parent of a compound that is named as a salt. Where two headings read alike, the source gives them in different places.
What was measured:
[1] = French Pat. No. 1,566,045; cited from earlier work
[2] = Comparative tests of antiarrhythmic action, neurotoxicity and side effects (general statements); conditions: general statement
[3] = Dahlbom and Dolby, Acta Pharm. Suecica (1969); cited from earlier work
[4] = Biological availability by the oral route in dog; type: in vivo
Description: The biological availability of Compound I administered by the oral route was determined first in a conscious, healthy dog that received a dose of 7.5 mg/kg subdivided in 6 gelatin capsules that were slipped down its throat.

[5] = Interaction with metrazole-induced convulsions; type: in vivo; conditions: metrazole 100 mg/kg; i.p. 30, 60 and 90 minutes prior to metrazole
Source text: (§1) The lack of interaction of Compound I with other centrally active drugs may also be taken as an indication of its lack of activity in the CNS.

[6] = Ouabain-induced arrhythmia in the cat; type: in vivo; set-up: key to S.R. (sinus rhythm), Lidocaine-treated / S.R. (sinus rhythm), Compound I treated: +: denotes return to the rhythm
[7] = Ouabain-induced arrhythmia in dogs; type: in vivo; set-up: key to S.R. (sinus rhythm), Compound I treated: +: denotes return to the rhythm
Description: In other experiments using mongrel dogs, the animals were anesthetized by an i.v. injection of nembutal (25 mg/kg), then arrhythmia was induced by the administration of decreasing doses of ouabain at 30 minute intervals, 40, 20 and 10 μg/kg. Treatment with Compound I was then carried out as described for cats.

[8] = Summary comparison with lidocaine: side effects; conditions: summary table
[9] = test system: conscious, healthy dogs; conditions: dog, in vivo, iv, 5 mg/kg
[10] = in vivo
[11] = Interaction with electro shock-induced seizure; type: in vivo; conditions: 30 volts
Source text: as §1

[12] = Occlusion-induced arrhythmias in conscious dogs, parenteral administration; type: in vivo
Description: The effect of parenteral administration of Compound I on occlusion-induced arrhythmias in conscious dogs was determined. Occulsion was achieved by ligation of the left anteria descending coronary artery on 5 dogs.
Compound I was administered once within 24 hours and once within 48 hours after ligation.

[13] = Acute toxicity, i.p. injection in mice; conditions: mouse, in vivo, ip, 0.5% solution, male albino ICR mice, probit analysis
Description: The toxicity of Compound I was determined by i.p. injection of a 0.5% solution of the drug into male, albino ICR mice weighing 20-25 g each. A group of six mice was used for each dose.

[14] = Occlusion-induced arrhythmias in conscious dogs, oral administration; type: in vivo; conditions: oral 15-20 mg/kg in 4 to 6 gelatin capsules, all cases
Description: Tests were also carried out to determine the effect of oral administration of Compound I on occlusion induced arrhythmias in conscious dogs.
Arrhythmia was induced by occlusion of the left anterior descending artery, as above described. Following this, Compound I was administered orally to the animals at the rate of 15-20 mg/kg, the dose being divided among 4 to 6 gelatin capsules, without prior treatment such as micronization or admixture with a diluent or carrier.

[15] = Interaction with oxotremorine-induced tremors; type: in vivo; conditions: oxotremorine 20 μg/kg i.p.; given i.p. 30 minutes prior
Source text: as §1

[16] = Solubility
[17] = in vivo; remark: listed apart in the source
[18] = test system: normal heart; test: Effect on normal heart (ECG) in nembutal-anesthetized cats; type: in vivo
Description: Nembutal anesthetized cats responded differently. […] If drug administration was discontinued at this stage, then the severe toxic effects would disappear after 40 minutes, the heart reverting to normal sinus rhythm.

[19] = Pharmacokinetic parameters in conscious dogs with occlusion-induced arrhythmia; type: in vivo; conditions: dog, blood, iv
Description: The pharmacokinetic parameters of Compound I were determined in conscious dogs suffering from occlusion-induced arrhythmia. After intravenous injection of a single therapeutic dose, venous blood samples were withdrawn at given intervals, heparinized and analyzed for their content of Compound I by gas chromatography.

[20] = test system: normal heart; test: Effect on normal heart (ECG) in conscious healthy dogs; type: in vivo
Description: The effect of Compound I on the normal heart was determined by the administration of the compound as a bolus intravenous injection to conscious healthy dogs for which lead II of the electrocardiogram was monitored for as long as 2 hours after injection.
In one case, a single dose of 5 mg/kg was administered rapidly in order to achieve a high but transient concentration in the heart. […] The ECG record reverted to normal within 15 minutes.

[21] = test system: normal heart; test: Effect on normal heart (ECG) in nembutal-anesthetized dog; type: in vivo; conditions: nembutal 25 mg/kg; cumulative i.v. dose 6 mg/kg over 30 minutes
[22] = Interaction with Indoklon-induced seizures; type: in vivo; conditions: Indoklon by inhalation 30 minutes later
Source text: as §1

[23] = Summary comparison with lidocaine: ouabain-induced arrhythmia; type: in vivo; conditions: i.v.
[24] = Effect of Compound II in drug-induced (ouabain) arrhythmia; type: in vivo; conditions: 2.7 kg cat, nembutal; ouabain 70 μg per kg; i.v. 1.1 mg per kg
Description: Arrhythmia was induced in 2.7 kg cat, previously anesthetized with nembutal, by the slow infusion of ouabain over a period of one hour and to a total dose of 70 μg per kg.

[25] = Effect of Compound II in arrhythmia induced by coronary occlusion; type: in vivo; conditions: dog 15 kg, 24 hours after ligation; i.v. 3 mg per kg
Source text: Arrhythmia was induced in a dog of 15 kg body weight, by ligation of the left anteria descending coronary artery with a silk thread number 000.

[26] = test system: albino mice; test: Symptoms after intraperitoneal administration to albino mice; type: in vivo; conditions: i.p.
Source text: This is confirmed by the tests of compound II, namely the hydrochloride of 2,6-xylidide of quinuclidine-2-carboxylic acid, which was produced both by the method of French Pat. No. 1,566,045, and by the method of the present invention. Administration of Compound II to albino mice by the intraperitoneal route induced the following symptoms: […]

[27] = dog, conditions as Table 1, hydrochloride
[28] = cat 13, lidocaine HCl single i.v. injection 1.6 mg/kg
[29] = cat, lidocaine HCl single i.v. injection 4 mg/kg, 4 mg/kg

Cc1cccc(C)c1NC(=O)C1CC2CCN1CC2 (centres unmarked) [2,6-xylidide of quinuclidine-2-carboxylic acid]
action indicated [1]: antiarrhythmic and local anaesthetic action | cardiac antiarrhythmic action [2]: devoid of useful cardiac antiarrhythmic action; also recorded: devoid of useful antiarrhythmic properties; also recorded: devoid of any useful cardiac antiarrhythmic effect | neurotoxicity [2]: neurotoxic | cardiac antiarrhythmic action ([2]; listed as 2,6,-xylidide of quinuclidine-2-carboxylic acid): completely devoid of any useful antiarrhythmic action

Cc1cccc(C)c1NC(=O)C1CN2CCC1CC2 (centres unmarked) [2,6-xylidide of quinuclidine-3-carboxylic acid]
cardiac antiarrhythmic action [2]: pronounced cardiac antiarrhythmic activity; also recorded: highly pronounced cardiac antiarrhythmic action | pharmacological effect [3]: no pharmacological effect except for a weak local anaesthetic action

Cc1cccc(C)c1NC(=O)C1CN2CCC1CC2 (centres unmarked) [Compound I, 2,6-xylidide of quinuclidine-3-carboxylic acid hydrochloride]
bioavailability in conscious arrhythmic dogs ([4]; conscious arrhythmic dogs, oral, relative to healthy dog): of the same order | bioavailability ([4]; dog, in vivo, po, summary table): ~80% | Cmax ([4]; in vivo, oral 7.5 mg/kg in 6 gelatin capsules, conscious healthy dog, read-out: Peak blood concentration): 1500 to 2000 ng/mL | effect on metrazole-induced convulsions [5]: did not affect metrazole-induced convulsions | B.P. (blood pressure), Compound I treated ([6]; cat 1, 0.5 mg/kg used): 80/60 | Duration (period of observation from onset of reversal of arrhythmia) ([6]; cat 1, 0.5 mg/kg used): 10 min | H.R. (heart rate), Compound I treated ([6]; cat 1, 0.5 mg/kg used): 100 per min | S.R. (sinus rhythm), Compound I treated ([6]; cat 1, 0.5 mg/kg used): + | Duration (period of observation from onset of reversal of arrhythmia) ([6]; cat 3, bolus i.v. 1 mg/kg, after ouabain): 240 min | improvement of the ECG ([6]; cat, single dose 1 mg/kg, 10 minutes after constant arrhythmia, ouabain 70-90 μg/kg cumulative): marked improvement of the ECG that lasted much longer than any improvement achieved with lidocaine | reappearance of arrhythmia and response to additional dose ([6]; cats marked ##, additional dose 1 mg/kg for 2, 7 and 0.5 mg/kg for 10): suppressed again with an additional dose of EO-122 | H.R. (heart rate), Compound I treated ([7]; dog, conditions as Table 1): 170 per min | S.R. (sinus rhythm), Compound I treated ([7]; dog, conditions as Table 1): + | B.P. (blood pressure), Compound I treated [7, 27]: 100/80 and 140/110 | Duration (period of observation from onset of reversal of arrhythmia) [7, 27]: 40 min and 25 min | reappearance of arrhythmia and response to additional dose ([7]; dogs 14, 15, one i.v. injection of […]): Arrhythmia reappeared after this period but was suppressed | reversal of VT to normal sinus rhythm ([7]; dogs, 1 mg/kg single doses): reversal of VT to normal sinus shythm was achieved | Side effects: CNS-effects [8]: none | Side effects: Emesis [8]: partial | change in posture, behavior or mood [9]: no significant change in posture, behavior or mood from control | side effects [10]: absence of side effects such as hypotension and CNS stimulation | effect against electro shock-induced seizure [11]: equally ineffective | Onset of effect, occlusion-induced arrhythmia within 1st 24 hr. ([12]; i.v.): 2 min | duration of full, uninterrupted sinus rhythm ([12]; one bolus i.v. injection of 3 mg/kg within 24 hours after ligation): ≤ 20 min | LD50 [13]: 60 ± 5 mg/kg | restoration of normal sinus rhythm [14]: fully effective in the restoration of normal sinus rhythm | effect on oxotremorine-induced tremors [15]: did not affect oxotremorine-induced tremors | solubility [16]: highly soluble | Side effects: Hypotension [17]: none | effect on ECG ([18]; cumulative dose 6 mg/kg): broadening of the QRS occurred but sinus rhythm was maintained | effect on ECG ([18]; cumulative dose 10.5 mg/kg): broadening of the QRS occurred but sinus rhythm was maintained | effect on ECG / conduction ([18]; cumulative dose 16.5 mg/kg, hydrochloride, 16.5 mg/kg): second degree AV block occurred; also recorded: Atrial conduction slowed down | time to disappearance of severe toxic effects ([18]; drug administration discontinued after 16.5 mg/kg cumulative, heart reverting to normal sinus rhythm): 40 min | effect on ECG / heart ([18]; further […], total cumulative dose 23.5 mg/kg): high degree AV block, followed by cardiac standstill | effect on ECG ([18]; total dose of 3 mg/kg in small increments over 34 minutes): leftward shift of the QRS complex | half-life ([19]; i.v. single therapeutic dose, conscious arrhythmic dogs, venous blood, GC, read-out: Biological half-life (t1/2)): 4 to 5 h | half-life ([19]; i.v. single therapeutic dose, conscious arrhythmic dogs, read-out: t1/2 for distribution): 0.0833 h | half-life ([19]; summary table, read-out: t1/2 for distribution): 0.0833 h | half-life ([19]; summary table, read-out: t1/2 for elimination): 4 to 5 h | Vd ([19]; summary table, read-out: volume of distribution): 0.2 L/kg | effect on ECG ([20]; dog, in vivo, 5 mg/kg): Broadening of the QRS complex was observed | time for ECG record to revert to normal ([20]; dog, in vivo, 5 mg/kg): ≤ 15 min | change in the ECG ([20]; dog, in vivo, iv, 3 mg/kg): no change in the ECG | other signs of overt toxicity ([20]; single dose of 5 mg/kg administered rapidly, one case): no other signs of overt toxicity | change in the ECG [21]: no change in the ECG | effect against Indoklon-induced seizures [22]: equally ineffective | Duration of effect, ouabain-induced arrhythmia [23]: about 1 hour | Onset of effect, ouabain-induced arrhythmia [23]: about 2 minutes

Cc1cccc(C)c1NC(=O)C1CC2CCN1CC2 (centres unmarked) [Compound II, 2,6-xylidide of quinuclidine-2-carboxylic acid hydrochloride]
effect in ouabain-induced arrhythmia [24]: precipitated ventricular fibrillation and death | neurotoxicity [25]: clear signs of neurotoxicity such as undue excitement and lateral movements of the head | response in the electrocardiogram [25]: only a fleeting response in the electrocardiogram with only a few signs of improvement | cause of death ([26]; 100 mg per kg): respiratory failure | lethal dose ([26]; albino mice): 100 mg. per kg | Effects ([26]; dose range 20-30 mg per kg): increased locomotion, excitation | Effects ([26]; dose range 40-60 mg per kg, hydrochloride): pronounced neurotoxicity, ataxia; also recorded: partial paralysis

CCN(CC)CC(=O)Nc1c(C)cccc1C [Lidocaine]
B.P. (blood pressure), Lidocaine-treated [6, 28]: 130/100 | Duration (period of observation from onset of reversal of arrhythmia) [6, 28]: 3 min | H.R. (heart rate), Lidocaine-treated [6, 28]: 80 per min | S.R. (sinus rhythm), Lidocaine-treated [6, 28]: + | B.P. (blood pressure), Lidocaine-treated [6, 29]: 60/40 and 120/80 | H.R. (heart rate), Lidocaine-treated [6, 29]: 150 per min and 110 per min | reappearance of arrhythmia after lidocaine ([6]; cats 12 and 13): Arrhythmia reappeared | Side effects: Emesis [8]: partial | Side effects: Hypotension [8]: about 20% | Onset of effect, occlusion-induced arrhythmia within 1st 24 hr. ([12]; i.v.): 2 min | Single therapeutic dose for suppression of Occlusion-induced arrhythmia within 1st 24 hr. after operation ([12]; i.v.): often ineffective | effect of lidocaine on occlusion-induced arrhythmia ([12]; same animals, bolus i.v. 3 mg/kg): either completely ineffective or of ultra-short duration | Onset of effect, ouabain-induced arrhythmia [23]: about 2 minutes

— patent US4146628A, “Antiarrhythmic quinuclidine carboxylic acid xylidide and method of producing the same and similar compounds” (priority 1977, dated 1979)
